Reference: patent US4424225A, “Thienobenzodiazepinones, pharmaceutical compositions thereof and method of use thereof” (Dr. Karl Thomae GmbH, priority 1982, dated 1984)
pIC50: −log10 of the molar value.

Legend:
[1] = molecular target: muscarinic receptors (cerebral cortex); assay: Binding to muscarinic receptors, displacement of 3H-N-methylscopolamine, cerebral cortex; parameters: species or system rat (male Sprague-Dawley); details: 0.3 n molar 3H-NMS, 30° C., 45 minutes, pH 7.4, read-out: Receptor Binding Tests IC50, Cortex
Procedure: (§1) 3. STUDIES OF BINDING TO MUSCARINIC RECEPTORS: DETERMINATION OF THE IC50 VALUE
(§2) The organ donors were male Sprague-Dawley rats with a body weight of from about 180 to 220 gm each. After the heart, stomach, and cerebral cortex had been removed, the remainder of the operation was carried out in ice-cold Hepes-HCl buffer (pH 7.4; 100 m molar NaCl, 10 m molar MgCl2). The smooth muscle of the fundus of the stomach was separated from the mucous membrane of the stomach and subjected to preliminary homogenization. The whole heart was cut up with scissors. All the organs were then homogenized in a Potter apparatus.
(§3) For the binding test, the homogenized organs were diluted as follows:
(§4) The homogenized organ preparations were incubated at a specific concentration of the radioligand and with a series of concentrations of the non-radioactive test substances in an Eppendorf centrifuge tube at 30° C. The duration of incubation was 45 minutes. The substance 0.3 n molar ^3 H-N-methylscopolamine (^3 H-NMS) was used as the radioligand. After incubation had been brought to an end by centrifuging at 14000 g, the radioactivity in the pellet was determined. […] The proportion of non-specific binding was defined as the radioactivity which was bound in the presence of 1μ molar quinuclidinylbenzylate. […] The IC50 values of the non-labelled test substances were determined graphically. […]

[2] = molecular target: T1, muscarinic receptors (smooth muscle of the fundus of the stomach) (Rattus norvegicus, UniProt P10980); assay: Binding to muscarinic receptors, displacement of 3H-N-methylscopolamine, smooth muscle of the fundus of the stomach; parameters: species or system rat (male Sprague-Dawley); details: 0.3 n molar 3H-NMS, 30° C., 45 minutes, pH 7.4, read-out: Receptor Binding Tests IC50, Smooth Muscle Fundus of Stomach
T1 construct: The smooth muscle of the fundus of the stomach was separated from the mucous membrane of the stomach; from tissue; host or cells: homogenized smooth muscle of the stomach fundus of male Sprague-Dawley rats
T1 sequence (P10980 1-466): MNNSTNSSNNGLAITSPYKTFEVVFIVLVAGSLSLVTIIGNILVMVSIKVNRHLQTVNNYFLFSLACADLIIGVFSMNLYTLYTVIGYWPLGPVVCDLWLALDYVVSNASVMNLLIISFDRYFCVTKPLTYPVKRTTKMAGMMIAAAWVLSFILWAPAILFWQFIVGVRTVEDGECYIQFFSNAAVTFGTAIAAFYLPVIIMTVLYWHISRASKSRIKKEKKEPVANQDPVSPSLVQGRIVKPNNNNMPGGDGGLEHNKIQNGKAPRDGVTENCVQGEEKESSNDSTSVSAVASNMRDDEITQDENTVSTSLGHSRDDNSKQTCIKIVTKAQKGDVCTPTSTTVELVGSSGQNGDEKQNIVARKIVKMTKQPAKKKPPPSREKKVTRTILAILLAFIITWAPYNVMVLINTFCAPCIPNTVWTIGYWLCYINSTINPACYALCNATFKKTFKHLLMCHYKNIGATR
Procedure: as §1, §2, §3
Smooth muscle of the fundus of the stomach: 1:100
as §4, with “The substance 0.3 n molar ^3 H-N-methylscopolamine (^3 H-NMS) was used as the radioligand.” left out

[3] = system: oxotremorine-induced lesions in the mucous membrane of the stomach (muscarinic receptors); assay: Oxotremorine test: protection against oxotremorine-induced lesions of the gastric mucous membrane; assay type: in vivo, rat (female albino, Crl: COBS-CD (SD) BR); details: Rattus norvegicus, iv, 15 minutes before oxotremorine 0.62 mg/kg i.v., neostigmine 1 mg/kg oral
Procedure: (§5) Oxotremorine, a specific agonist for muscarinic receptors, produces lesions in the mucous membrane of the stomach in rats and increases their secretion of saliva. This test method was chosen so that any selective activity of an anti-muscarinic substance on the stomach could be identified.
Ten female albino rats (of the Crl: COBS-CD (SD) BR strain) with a body weight of from 120 to 150 gm apiece were used in each treatment group and were kept without food for 24 hours before the start of the test but given free access to drinking water. […]
(§6) Each antimuscarinic substance was administered intravenously in uniformly graduated doses 15 minutes before the oxotremorine was administered. Control groups were given corresponding quantities of the solvent and suspension agent instead of the test substance. […]
(§7) The ED50 values were determined using the method described by LITCHFIELD and WILCOXON (J. Pharmacol. Exp. Ther. 96, 99, 1949).
The effects on lesions of the mucous membrane of the stomach were evaluated as follows:
The lesions of the gastric mucous membrane were produced by intravenous injection of 0.62 mg/kg of oxotremorine 30 minutes after oral administration of 1 mg/kg of neostigmine (a cholinesterase inhibitor). […] The protective effect of the test substances was expressed as the percentage inhibition (percentage of animals without lesions). […]

[4] = Oxotremorine test: inhibition of oxotremorine-induced secretion of saliva; parameters: species or system rat (female albino, Crl: COBS-CD (SD) BR); details: rat, in vivo, iv, 15 minutes before oxotremorine 0.083 mg/kg i.v.; read-out: Oxotremorine Test, Inhibition of Salivation ED50
Procedure: as §5
Ten female albino rats (of the Crl: COBS-CD (SD) BR strain) with a body weight of from 120 to 150 gm apiece were used in each treatment group and were kept without food for 24 hours before the start of the test but given free access to drinking water.
To determine, in preliminary tests, the muscarinic effect of oxotremorine on each of the symptoms studied, a dosage/activity curve was drawn up with at least three dosages for each symptom.
When the antimuscarinic substances were tested, the dosage of oxotremorine which triggered the symptom in question in 90 to 100% of the animals in the preliminary tests was used.
Secretion of saliva: 0.083 mg/kg i.v.
as §6, §7

[5] = Testing for mydriasis; details: rat, in vivo, iv; pupil observed for 10 minutes
Procedure: The effect of the test substances on the pupil size in rats was investigated as follows:
The substances were administered intravenously to groups of 10 animals in at least three uniformly graduated doses. The pupil size was then observed for 10 minutes to see if there were any changes (mydriasis or miosis). […] The percentage of test animals in which mydriasis occurred was determined. The ED50 values were again determined using the method of LITCHFIELD and WILCOXON (see above).

## CN1CCC(CC(=O)N2c3ccccc3NC(=O)c3cscc32)CC1 [A, 4,9-Dihydro-4-[(1-methyl-4-piperidinyl)acetyl]-10H-thieno[3,4-b][1,5]benzodiazepin-10-one]
[1]
  pIC50: 7.70
[2]
  pIC50: 7.12
[3]; read-out: Oxotremorine Test, Anti-ulcerative Effect ED50
  ED50: 0.0078 mg/kg
[3]; read-out: Oxotremorine Test, Anti-ulcerative Effect ED70
  ED70: 0.014 mg/kg
[4]
  ED50 at 0.25 h: 0.0215 mg/kg
[5]
  ED50 at 10 min: 0.03 mg/kg
